What was measured:
Assay type in all cases: functional
Rattus norvegicus [1] = species on record: Rattus norvegicus; test: Effective dose required to inhibit ovulation in normal cycling rats
Rattus norvegicus [2] = test: Effective dose required to inhibit ovulation in normal cycling rats at a dose of 2 mg/kg
Rattus norvegicus [3] = test: Effective dose required to inhibit ovulation in normal cycling rats at 1 mg/kg

**Q.** How did the ED50 (Rattus norvegicus [1]) turn out when CC(=O)N[C@H](Cc1ccc(Cl)cc1)C(=O)N[C@H](Cc1ccc(Cl)cc1)C(=O)N[C@H](Cc1c[nH]c2ccccc12)C(=O)N[C@@H](CO)C(=O)N[C@H]1CC(=O)NCCCC[C@@H](C(=O)N2CCC[C@H]2C(=O)N[C@H](C)C(N)=O)NC(=O)[C@H](CC(C)C)NC(=O)[C@@H](CCCN=C(N)N)NC1=O was run?
**A.** Its ED50 is 180 ug rat-1.

**Q.** With CC(C)C[C@@H]1NC(=O)[C@@H](CCCN=C(N)N)NC(=O)[C@@H]2CCC(=O)NCCCC[C@H](NC1=O)C(=O)N1CCC[C@H]1C(=O)N[C@H](C)C(=O)N[C@H](Cc1ccc(Cl)cc1)C(=O)N[C@H](Cc1ccc(Cl)cc1)C(=O)N[C@H](Cc1c[nH]c3ccccc13)C(=O)N[C@@H](CO)C(=O)N2 as the molecule, how does the inhibition in vivo at 2 mg/kg (Rattus norvegicus [2]) read?
**A.** The inhibition in vivo at 2 mg/kg was 40%.

**Q.** CC(=O)N[C@H](Cc1ccc(Cl)cc1)C(=O)N[C@H](Cc1ccc(Cl)cc1)C(=O)N[C@H](Cc1c[nH]c2ccccc12)C(=O)N[C@@H](CO)C(=O)N[C@H]1CCC(=O)NCCCC[C@@H](C(=O)N2CCC[C@H]2C(=O)N[C@H](C)C(N)=O)NC(=O)[C@H](CC(C)C)NC(=O)[C@@H](CCCN=C(N)N)NC1=O was tested. Which ED50 (Rattus norvegicus [1]) did it give?
**A.** Its ED50 is 90 ug rat-1.

**Q.** Which ED50 (Rattus norvegicus [1]) does the source give for CC(=O)N[C@H](Cc1ccc(Cl)cc1)C(=O)N[C@H](Cc1ccc(Cl)cc1)C(=O)N[C@H](Cc1c[nH]c2ccccc12)C(=O)N[C@@H](CO)C(=O)N[C@H]1CC(=O)NCCC[C@@H](C(=O)N2CCC[C@H]2C(=O)N[C@H](C)C(N)=O)NC(=O)[C@H](CC(C)C)NC(=O)[C@@H](CCCN=C(N)N)NC1=O here?
**A.** The ED50 was 540 ug rat-1.

**Q.** Which ED50 (Rattus norvegicus [3]) does the source give for CC(C)C[C@@H]1NC(=O)[C@@H](CCCN=C(N)N)NC(=O)[C@@H]2CCC(=O)NCCCC[C@H](NC1=O)C(=O)N1CCC[C@H]1C(=O)N(C)[C@H](C)C(=O)N[C@H](Cc1ccc(Cl)cc1)C(=O)N[C@H](Cc1ccc(Cl)cc1)C(=O)N[C@H](Cc1c[nH]c3ccccc13)C(=O)N[C@@H](CO)C(=O)N2 here?
**A.** Its ED50 is 200 ug rat-1.

**Q.** What about the inhibition in vivo at 1 mg/kg (Rattus norvegicus [3]) of the same molecule?
**A.** Its inhibition in vivo at 1 mg/kg is 50%.

— ChEMBL document CHEMBL1126962, “Antagonists of luteinising hormone-releasing hormone (LHRH). Progress towards non-peptide leads” (1993)
